From US20130017548A1, “SCREENING METHOD” (AJINOMOTO, INC., priority 2009, published 2013)
Blank lines part the entries; values can stand above or below the compound they belong to.

Key:
PIKfyve = biological target: T1, PIKfyve (Homo sapiens, UniProt Q9Y2I7); assay: Assessment of lipid kinase inhibitory activity (competition with biotinyl acyl phosphate ATP derivative in Jurkat cell extract, LC-MS/MS); format: binding; details: test compound 30 nM or 300 nM, FIG. 1
T1 construct: the supernatant resulting from centrifugation at 100,000×g for 60 minutes was used as a cell extract; endogenous in cells; host or cells: Jurkat (human T-lymphocyte line), cell extract
Experimental: Lipid kinase inhibitory activity was assessed according to the method described in Biochemistry 2007, 46, 350-358. Jurkat cell derived from human lymphocyte was suspended in a lysis buffer (20 mM Hepes, 150 mM NaCl, 0.1% TritonX-100, 20 mM MnCl2) by sonication, and the supernatant resulting from centrifugation at 100,000×g for 60 minutes was used as a cell extract. To the cell extract (5 mg/mL), a test compound (30 nM or 300 nM) or a solvent alone was added and incubated for 5 minutes. Then, an ATP derivative labeled with biotinyl acyl phosphate (20 μM) was added and incubated for 5 minutes, and the resultant was further subjected to digestion with trypsin. […] The biotin-labeled peptide was analyzed by LC-MS/MS for sequence identification and measurement of the elution amount of the lipid-kinase-derived peptide so as to assess competitive inhibitory activity of the test compound for the binding of the ATP derivative to various lipid kinases. […]
Using this assessment system, the inhibitory activity of the test compound for other lipid kinases was assessed (other lipid kinases may be commercially available or may be produced according to a method described in a known document) and the results thereof are shown in FIG. 1.

[1] = tested on: mouse enterocolitis model; assay: Inflammation suppressive action in mouse IL-10-/- cell transfer enterocolitis model; format: in vivo; details: FIG. 3
Experimental: A method for producing a mouse IL-10^−/− cell transfer enterocolitis model is described, for example, in Gastroenterology. 2009 February; 136(2):564-74.e2. Epub 2008 Oct. 7.
Measurement of an intestine weight as a drug efficacy indicator was carried out according to the following method. On the last day for autopsy, large intestine from the anus to immediately before the cecum was removed. The content of the intestine was washed with physiological saline, water was roughly removed and then the weight was measured.
Results from the assessment of the inflammation suppressive action of Compound 1 in mouse enterocolitis model using this assessment system are shown in FIG. 3.

[2] = tested on: IL-12b expression in mouse peritoneal macrophage; assay: IL-12-production suppressive action by PIKfyve and Vac14 knockdown (siRNA, quantitative PCR); format: cell-based; details: siRNA 1 μM, mouse interferon-γ and SAC stimulation 3.5 hours, normalized to GAPDH; FIG. 4
Experimental: Assessment of the effects of knockdown of PIKfyve and Vac14 expressed in mouse peritoneal macrophage using siRNA method was carried out as described below. Mouse peritoneal macrophage was isolated according to the method described in Laboratory Test Example 2, and subsequently suspended in Nucleofection solution attached to Mouse macrophage nucleofection kit (Lonza) to give 3.3×10^6 cells/mL. siRNA was added to the cell suspension to a final concentration of 1 μM and subjected to Nucleofection according to the attached protocol. The following siRNAs were used. […]
A FBS-free RPMI1640 medium was used for culture at 37° C. in the presence of 5% CO2 for 2 hours and then the medium was replaced by 0.5 ml of Dulbecco's MEM medium containing RPMI 1640 medium supplemented with 3% FBS for culture at 37° C. in the presence of 5% CO2 for 4 hours. Subsequently, 3.3 ng/mL mouse interferon-γ and 0.0017% (v/v) SAC were added and cultured for 3.5 hours and then the expression level of cytokine mRNA in the cell was measured.
Extraction and purification of total RNA from the mouse peritoneal macrophage was carried out using RNeasy midi kit (Qiagen 75144) according to the attached protocol. […] The resultant removed of the remaining […] was used as cDNA for quantitative PCR. […]

[3] = tested on: IL-12 and IL-23 productions; details: productions strongly induced by INF-γ; cited from earlier work

T1 sequence (Q9Y2I7 whole entry): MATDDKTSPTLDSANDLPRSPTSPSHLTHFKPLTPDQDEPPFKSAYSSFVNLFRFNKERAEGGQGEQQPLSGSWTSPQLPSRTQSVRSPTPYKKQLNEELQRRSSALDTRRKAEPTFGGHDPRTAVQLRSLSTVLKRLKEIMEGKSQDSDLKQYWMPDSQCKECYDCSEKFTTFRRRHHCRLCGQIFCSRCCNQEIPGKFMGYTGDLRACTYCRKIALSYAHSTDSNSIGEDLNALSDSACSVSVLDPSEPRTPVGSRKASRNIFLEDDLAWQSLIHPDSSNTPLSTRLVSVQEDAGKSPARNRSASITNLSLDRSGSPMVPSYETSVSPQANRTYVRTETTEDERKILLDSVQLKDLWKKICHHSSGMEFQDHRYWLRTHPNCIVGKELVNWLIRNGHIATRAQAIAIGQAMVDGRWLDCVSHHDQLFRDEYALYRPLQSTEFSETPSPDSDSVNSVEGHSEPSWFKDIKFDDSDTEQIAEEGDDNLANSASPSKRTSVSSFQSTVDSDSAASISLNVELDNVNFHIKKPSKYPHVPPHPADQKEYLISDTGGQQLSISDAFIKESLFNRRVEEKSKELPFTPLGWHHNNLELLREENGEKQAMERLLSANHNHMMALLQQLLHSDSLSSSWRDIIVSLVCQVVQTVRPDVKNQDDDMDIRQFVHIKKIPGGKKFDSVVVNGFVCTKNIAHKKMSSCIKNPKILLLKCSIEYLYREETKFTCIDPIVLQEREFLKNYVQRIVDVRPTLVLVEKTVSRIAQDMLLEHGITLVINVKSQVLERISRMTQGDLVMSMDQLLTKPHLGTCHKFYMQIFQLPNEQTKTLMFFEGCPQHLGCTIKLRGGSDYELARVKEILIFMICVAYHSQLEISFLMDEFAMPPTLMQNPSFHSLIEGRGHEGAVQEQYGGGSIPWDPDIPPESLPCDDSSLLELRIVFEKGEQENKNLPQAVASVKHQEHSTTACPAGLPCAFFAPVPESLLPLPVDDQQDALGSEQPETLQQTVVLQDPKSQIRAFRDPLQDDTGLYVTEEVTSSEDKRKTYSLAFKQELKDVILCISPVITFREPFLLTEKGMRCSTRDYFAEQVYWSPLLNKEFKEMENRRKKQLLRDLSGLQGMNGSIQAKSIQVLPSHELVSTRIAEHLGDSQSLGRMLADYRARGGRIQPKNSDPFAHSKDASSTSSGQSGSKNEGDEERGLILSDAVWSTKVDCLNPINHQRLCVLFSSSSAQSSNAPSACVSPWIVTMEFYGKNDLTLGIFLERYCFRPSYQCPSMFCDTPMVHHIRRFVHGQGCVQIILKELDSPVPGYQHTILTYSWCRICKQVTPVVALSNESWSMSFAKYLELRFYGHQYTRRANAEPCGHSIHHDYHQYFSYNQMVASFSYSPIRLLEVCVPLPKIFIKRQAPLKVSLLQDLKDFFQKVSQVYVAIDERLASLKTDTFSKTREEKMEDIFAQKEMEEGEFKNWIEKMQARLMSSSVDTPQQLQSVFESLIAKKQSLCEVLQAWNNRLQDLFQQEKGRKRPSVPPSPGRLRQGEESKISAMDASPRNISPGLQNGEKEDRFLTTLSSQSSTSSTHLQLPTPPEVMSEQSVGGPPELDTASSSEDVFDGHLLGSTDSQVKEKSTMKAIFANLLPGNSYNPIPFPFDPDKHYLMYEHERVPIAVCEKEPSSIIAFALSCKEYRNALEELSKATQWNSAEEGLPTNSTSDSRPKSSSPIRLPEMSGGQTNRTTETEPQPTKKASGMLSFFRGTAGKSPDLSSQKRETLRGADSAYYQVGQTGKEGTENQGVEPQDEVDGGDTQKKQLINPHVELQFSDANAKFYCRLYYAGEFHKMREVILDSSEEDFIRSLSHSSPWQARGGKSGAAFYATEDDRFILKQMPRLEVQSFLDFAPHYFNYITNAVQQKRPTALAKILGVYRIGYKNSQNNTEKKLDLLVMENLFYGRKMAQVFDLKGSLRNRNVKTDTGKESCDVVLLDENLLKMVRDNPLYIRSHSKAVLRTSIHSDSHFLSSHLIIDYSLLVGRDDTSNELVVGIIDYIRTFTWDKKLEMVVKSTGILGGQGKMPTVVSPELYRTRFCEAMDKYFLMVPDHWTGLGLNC

inhibitory activity against various lipid kinases (selectivity) (PIKfyve): inhibitory activity selective to PIKfyve
Compound: Cc1cccc(C=NNc2cc(N3CCOCC3)n3nc(-c4ccncc4)cc3n2)c1 [Compound 1, N-(3-METHYL-BENZYLIDENE)-N′-(7-MORPHOLINE-4-YL-2-PYRIDINE-4-YL-PYRAZOLO[1,5-A]PYRIMIDINE-5-YL)-HYDRAZINE]
weight of the large intestine ([1]; 3, 10, 30 mg/kg, increase by IL-10-/- cell transfer): suppressed dependent on the dosage
suppressive action on large intestine weight ([1]; administration group of 30 mg/kg, once a day): Significant suppressive action

Compound: Vac14 siRNA: Silencer Select Pre-designed siRNA (Sense SEQ ID NO: 11, Antisense SEQ ID NO:12, Ambion, s107929) as Vac14 siRNA (sense GAUUUACUCCAACAACCAATT; antisense UUGGUUGUUGGAGUAAAUCCT; chemistry not given here)
IL-12b expression (fold-change over basal) [2]: significantly suppressed

inhibitory activity against various lipid kinases (selectivity) (PIKfyve): inhibitory activity selective to PIKfyve
Compound: C(=NNc1cc(N2CCOCC2)n2nc(-c3ccncc3)cc2n1)c1ccc2cc[nH]c2c1 [Compound 2, N-(1H-INDOLE-6-YLMETHYLENE)-N′-(7-MORPHOLINE-4-YL-2-PYRIDINE-4-YL-PYRAZOLO[1,5-A]PYRIMIDINE-5-YL)-HYDRAZINE]

Compound: O=C1CCC(N2C(=O)c3ccccc3C2=O)C(=O)N1 (stereo not drawn) [thalidomide]
suppression of IL-12 and IL-23 productions [3]: cannot sufficiently suppress
